According to the NIST ThermoML archive (doi:10.1021/je700699u):

Assay: cn = amount concentration of the nth substance listed, in mol/dm3
Conditions: 101 kPa, Liquid

CSCCC(N)C(=O)[O-].[K+] (stereo not drawn) [potassium salt of DL-methionine] + O
Conditions	mass density, 298.15 K [kg/m3]	mass density, 303.15 K [kg/m3]	mass density, 313.15 K [kg/m3]	mass density, 323.15 K [kg/m3]	mass density, 333.15 K [kg/m3]	viscosity, 298.15 K [mPa·s]	viscosity, 303.15 K [mPa·s]	viscosity, 313.15 K [mPa·s]	viscosity, 323.15 K [mPa·s]	viscosity, 333.15 K [mPa·s]
c1 = 0.252	1016	1014	1010	1006	1003	0.987	0.884	0.722	0.608	0.519
c1 = 0.503	1033	1032	1027	1023	1020	1.109	0.987	0.806	0.675	0.575
c1 = 0.732	1051	1049	1044	1039	1037	1.263	1.125	0.909	0.754	0.64
c1 = 0.994	1067	1065	1060	1055	1053	1.425	1.264	1.019	0.84	0.708
c1 = 1.252	1084	1083	1077	1072	1069	1.654	1.478	1.161	0.952	0.799
c1 = 1.479	1100	1098	1093	1087	1085	1.883	1.657	1.316	1.071	0.893

NCCC(=O)[O-].[K+] [potassium Salt of B-alanine] + O
Conditions	mass density, 298.15 K [kg/m3]	mass density, 303.15 K [kg/m3]	mass density, 313.15 K [kg/m3]	mass density, 323.15 K [kg/m3]	mass density, 333.15 K [kg/m3]	viscosity, 298.15 K [mPa·s]	viscosity, 303.15 K [mPa·s]	viscosity, 313.15 K [mPa·s]	viscosity, 323.15 K [mPa·s]	viscosity, 333.15 K [mPa·s]
c1 = 0.496	1026	1024	1020	1017	1011	1.05	0.944	0.762	0.638	0.546
c1 = 1.003	1053	1053	1048	1043	1038	1.23	1.097	0.892	0.744	0.634
c1 = 1.492	1079	1078	1074	1070	1065	1.453	1.293	1.049	0.871	0.737
c1 = 2.019	1107	1106	1100	1096	1090	1.759	1.548	1.25	1.027	0.866
c1 = 2.492	1133	1131	1126	1121	1116	2.131	1.881	1.497	1.223	1.022
c1 = 2.964	1157	1155	1150	1145	1140	2.609	2.293	1.808	1.464	1.217
c1 = 3.417	1181	1179	1174	1169	1162	3.245	2.832	2.209	1.77	1.459
